Experimental data from patent US7544675B2, “Chemical compounds with dual activity, processes for their preparation and pharmaceutical compositions” (UCB, S.A., priority 2002, dated 2009).

What was measured:
[1] = molecular target: T1, human m3 muscarinic receptor (Homo sapiens, UniProt P20309); assay: Affinity for human muscarinic receptors ([3H]-NMS binding, CHO cell membranes); settings: qualitative statement
T1 construct: expressed in transfected cells; host or cells: CHO (Chinese Hamster Ovarian) cells, crude membrane fraction
T1 sequence (P20309 whole entry): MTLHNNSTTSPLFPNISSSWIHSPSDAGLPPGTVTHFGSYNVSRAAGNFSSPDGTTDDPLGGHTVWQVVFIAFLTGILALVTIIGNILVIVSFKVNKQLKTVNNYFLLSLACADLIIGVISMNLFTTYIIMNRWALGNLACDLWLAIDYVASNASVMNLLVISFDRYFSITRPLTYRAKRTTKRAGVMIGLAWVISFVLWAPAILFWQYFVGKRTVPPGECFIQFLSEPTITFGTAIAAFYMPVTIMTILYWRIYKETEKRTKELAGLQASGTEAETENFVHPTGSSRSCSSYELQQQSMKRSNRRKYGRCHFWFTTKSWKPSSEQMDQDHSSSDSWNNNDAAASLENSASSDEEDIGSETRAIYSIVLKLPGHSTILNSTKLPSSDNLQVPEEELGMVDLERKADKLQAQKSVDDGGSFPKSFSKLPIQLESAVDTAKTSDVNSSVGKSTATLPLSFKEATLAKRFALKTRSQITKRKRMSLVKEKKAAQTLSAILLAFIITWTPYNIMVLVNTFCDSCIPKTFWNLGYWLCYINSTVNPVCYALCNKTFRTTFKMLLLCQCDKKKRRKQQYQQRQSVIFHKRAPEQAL
Experimental: Chinese Hamster Ovarian cells (CHO) expressing the human recombinant m1, m2, m3, m4 and m5 receptors were cultured in Ham's F12 media supplemented with 100 IU/ml of penicillin, 100 μg/ml of streptomycin, 400 μg/ml of geneticin and 5% of fetal bovine serum. Cell cultures were maintained in a humidified incubator at 37° C. and 5% CO2.
Confluent CHO cells expressing human m1, m2, m3, m4 and m5 muscarinic receptors were harvested and resuspended in phosphate buffered saline without calcium and magnesium. The cell suspension was centrifuged at 1500×g for 3 min (4° C.). The cell pellet was homogenized in a 15 mM Tris-HCl (pH 7.5) buffer containing 2 mM MgCl2, 0.3 mM EDTA and 1 mM EGTA. The crude membrane fraction was collected by two consecutive centrifugation steps at 40,000×g for 25 min (4° C.). The final pellet was resuspended, at a protein concentration ranging from 2 to 6 mg/ml, in a 7.5 mM Tris-HCl (pH 7.5) buffer containing 12.5 mM MgCl2, 0.3 mM EDTA, 1 mM EGTA and 250 mM sucrose and stored in liquid nitrogen.
Binding assays were performed according to procedure described in: Buckley N. J., Bonner T. I., Buckley C. M., Brann M. R., Mol. Pharmacol. (1989), 35, 469-476, but with slight modifications.
Briefly, 25 to 50 μg of membrane proteins were incubated at room temperature in 1 ml of a 50 mM Tris-HCl (pH 7.4) buffer containing 2 mM of MgCl2, 0.1 nM of [^3H]-NMS (N-methylscopolamine, 85 Ci/mmol, from Apbiotech, UK) and increasing concentrations of test compound dissolved in DMSO (1% final concentration). Non specific binding was measured in the presence of 1 μM atropine. After 60 (m2) or 120 (m3) min. incubation, assays were stopped by rapid vacuum filtration of the samples through glass fiber filters (Filtermat A, Wallac, Belgium) presoaked in 0.3% polyethyleneimine for at least 2 h. Samples were further rinsed with 8 ml of ice-cold 50 mM Tris-HCl (pH 7.4) buffer. Radioactivity trapped onto the filter was counted in a Betaplate counter (Wallac). Competition binding curves were analyzed by non-linear regression with XLfit software (UDBS, UK).

[2] = test system: PDE IV; assay: PDE IV enzymatic activity (SPA phosphodiesterase assay, cytosolic fraction from U937 cells); assay type: biochemical; settings: qualitative statement
Experimental: Cytosolic fraction from U937 cells pre-stimulated for 4 h at 37° C. with a mixture of rolipram 30 μM and salbutamol 1 μM (Torphy T. J., Zhou H. L., Cieslinski L. B., J. Pharmacol. Exp. Ther. (1992), 263 (3), 1195-1205).
Assays were performed in 100 μL of 50 mM Tris HCl buffer (pH 7.4) containing 5 mM MgCl2, 2 mM EGTA, 20 nM of [^3H]-cAMP (40-60 Ci/mmol), the cytosolic fraction of 50,000 U937 cells and the appropriate concentration of test compound (usually 10 μM) dissolved in DMSO (final assay concentration not exceeding 1%). After 30 min incubation at room temperature, 0.5 mg of SPA yttrium silicate beads are added to each sample. Radioactivity bound to the beads (5′-AMP) is determined by liquid scintillation. Non PDE IV activity and/or non specific binding of the labeled substrate to the SPA beads is defined as the residual radioactivity remaining in the presence of rolipram 32 μM (non PDE IV activity represents about 40% of total activity). PDE IV activity is determined by subtracting the non PDE TV activity from the total activity.

| SMILES | Dual high affinities: m3 receptor part [1] | Dual high affinities: PDE IV part [2] |
| --- | --- | --- |
| Cc1c(NC2CC2)nc(C2CC2C)nc1N1CCCCCC1 (racemic) [Compound 65, 6-(1-azepanyl)-N-cyclopropyl-5-methyl-2-(2-methylcyclopropyl)-4-pyrimidinamine] | high affinities | high affinities |
| Cc1c(NC2CC2)nc(C2CC2C)nc1N1CCC(C)CC1 (racemic) [Compound 98, N-cyclopropyl-5-methyl-2-(2-methylcyclopropyl)-6-(4-methyl-1-piperidinyl)-4-pyrimidinamine] | high affinities | high affinities |
| Cc1c(NC2CC2)nc(C2CC2C)nc1N1CCCCCC1 (single isomer, unassigned) [Compound 67, 6-(1-azepanyl)-N-cyclopropyl-5-methyl-2-(2-methylcyclopropyl)-4-pyrimidinamine] | high affinities | high affinities |
| CC1CC1c1nc(NC2CCCCC2)cc(NC2CC2)n1 (single isomer, unassigned) [Compound 144, N^4-cyclohexyl-N^6-cyclopropyl-2-(2-methylcyclopropyl)-4,6-pyrimidinediamine] | high affinities | high affinities |
| Cc1c(NC2CC2)nc(C2CCC2)nc1N1CCCCCC1 [Compound 55, 6-(1-azepanyl)-2-cyclobutyl-N-cyclopropyl-5-methyl-4-pyrimidinamine] | high affinities | high affinities |
| Clc1c(NC2CC2)nc(C2CC2)nc1N1CCCCCC1 [Compound 59, 6-(1-azepanyl)-5-chloro-N,2-dicyclopropyl-4-pyrimidinamine] | high affinities | high affinities |
| Fc1c(NC2CC2)nc(C2CC2)nc1N1CCCCCC1 [Compound 60, 6-(1-azepanyl)-N,2-dicyclopropyl-5-fluoro-4-pyrimidinamine] | high affinities | high affinities |
| Brc1c(NC2CC2)nc(C2CC2)nc1N1CCCCCC1 [Compound 61, 6-azepan-1-yl-5-bromo-N,2-dicyclopropyl-4-pyrimidinamine] | high affinities | high affinities |
| c1c(NC2CC2)nc(C2CC2)nc1N1CCCCCC1 [Compound 62, 6-(1-azepanyl)-N,2-dicyclopropyl-4-pyrimidinamine] | high affinities | high affinities |
| Nc1c(NC2CC2)nc(C2CC2)nc1N1CCCCCC1 [Compound 63, 6-(1-azepanyl)-N^4,2-dicyclopropyl-4,5-pyrimidinediamine] | high affinities | high affinities |
| Cc1c(NC2CC2)nc(C(C)C)nc1N1CCCCCC1 [Compound 64, 6-(1-azepanyl)-N-cyclopropyl-2-isopropyl-5-methyl-4-pyrimidinamine] | high affinities | high affinities |
| CCc1c(NC2CC2)nc(C2CC2)nc1N1CCC(C)CC1 [Compound 94, N,2-dicyclopropyl-5-ethyl-6-(4-methyl-1-piperidinyl)-4-pyrimidinamine] | high affinities | high affinities |
| Cc1c(NC2CC2)nc(C2CC2)nc1N1CC=CCC1 [Compound 112, N,2-dicyclopropyl-6-(3,6-dihydro-1(2H)-pyridinyl)-5-methyl-4-pyrimidinamine] | high affinities | high affinities |
| Cc1c(NC2CC2)nc(C2CC2)nc1N1CC2CCC(C2)C1 [Compound 115, 6-(3-azabicyclo[3.2.1]oct-3-yl)-N,2-dicyclopropyl-5-methyl-4-pyrimidinamine] | high affinities | high affinities |
| CCc1c(NC2CC2)nc(C2CC2)nc1N1CCSCC1 [Compound 118, N,2-dicyclopropyl-5-ethyl-6-(4-thiomorpholinyl)-4-pyrimidinamine (1:1)] | high affinities | high affinities |
| Cc1c(NCc2c(F)cccc2F)nc(C2CC2)nc1NC1CC1 [Compound 132, N^4,2-dicyclopropyl-N^6-(2,6-difluorobenzyl)-5-methyl-4,6-pyrimidinediamine] | high affinities | high affinities |
| Cc1c(NC2CCC(C)CC2)nc(C2CC2)nc1NC1CC1 (stereo not drawn) [Compound 145, N^4,2-dicyclopropyl-5-methyl-N^6-(4-methylcyclohexyl)-4,6-pyrimidinediamine] | high affinities | high affinities |

More lines, main results first:

| Dual high affinities: m3 receptor part [1] | SMILES | Dual high affinities: PDE IV part [2] |
| --- | --- | --- |
| high affinities | Cc1c(NC2CC2)nc(C2CC2)nc1N1CCCCC1C (racemic) [Compound 177, N,2-dicyclopropyl-5-methyl-6-(2-methyl-1-piperidinyl)-4-pyrimidinamine] | high affinities |
| high affinities | Cc1c(NC2CC2)nc(C2CC2)nc1N1CCCCCC1 [Compound 56, 6-(1-azepanyl)-N,2-dicyclopropyl-5-methyl-4-pyrimidinamine] | high affinities |
| high affinities | Cc1c(NC2CC2)nc(C2CC2)nc1N1CCCCCCC1 [Compound 72, 6-(1-azocanyl)-N,2-dicyclopropyl-5-methyl-4-pyrimidinamine] | high affinities |
| high affinities | Cc1c(NC2CC2)nc(C2CC2)nc1N1CCC(C(F)(F)F)CC1 [Compound 77, N,2-dicyclopropyl-5-methyl-6-[4-(trifluoromethyl)piperidin-1-yl]-4-pyrimidinamine] | high affinities |
| high affinities | Cc1c(NC2CC2)nc(C2CC2)nc1N1CCC(F)(F)CC1 [Compound 78, N,2-dicyclopropyl-6-(4,4-difluoro-1-piperidinyl)-5-methyl-4-pyrimidinamine] | high affinities |
| high affinities | Cc1c(NC2CC2)nc(C2CC2)nc1N1CCC(C)(C)CC1 [Compound 79, N,2-dicyclopropyl-6-(4,4-dimethyl-1-piperidinyl)-5-methyl-4-pyrimidinamine] | high affinities |
| high affinities | CCC1CCN(c2nc(C3CC3)nc(NC3CC3)c2C)CC1 [Compound 86, N,2-dicyclopropyl-6-(4-ethyl-1-piperidinyl)-5-methyl-4-pyrimidinamine] | high affinities |
| high affinities | Cc1c(NC2CC2)nc(C2CC2)nc1N1CCC(C)CC1 [Compound 95, N,2-dicyclopropyl-5-methyl-6-(4-methyl-1-piperidinyl)-4-pyrimidinamine] | high affinities |
| high affinities | C=C1CCN(c2nc(C3CC3)nc(NC3CC3)c2C)CC1 [Compound 106, N,2-dicyclopropyl-5-methyl-6-(4-methylene-1-piperidinyl)-4-pyrimidinamine] | high affinities |
| high affinities | Cc1c(NC2CC2)nc(C2CC2)nc1N1CCSCC1 [Compound 119, N,2-dicyclopropyl-5-methyl-6-(4-thiomorpholinyl)-4-pyrimidinamine] | high affinities |
